“Also recorded” adds a separate entry of the source.
Tests used:
[1] = DPPH free radical scavenging assay; conditions: triplicate (n = 3); 517 nm, 15 min
Description: A slightly modified DPPH assay as described by Brand William was followed. Initially, the absorbance of 3 mL from stock DPPH (20 mg/100 mL of methanol) was adjusted to 0.75 at 517 nm. The DPPH stock solution was covered and kept in the dark overnight to generate free radicals. About 2 mL of each dilution of different ranges (0.1–3.5 μM) was prepared from SB1– SB6 stock (5 mg/5 mL of methanol) were mixed with 2 mL of pre-incubated DPPH stock solution and incubated for 15 min at room temperature. Ascorbic acid was used as a standard. The absorbance of the reaction mixtures was recorded at 517 nm and the % inhibition was calculated by Equation (1):[1] %inhibition=A−B/A×100
where A = absorbance of pure DPPH in oxidized form, B = absorbance of the sample, which
Was measured after 15 min of reaction with DPPH.

[2] = ABTS free radical scavenging assay; conditions: triplicate (n = 3); 745 nm, 15 min
Description: The antioxidant potential of the synthesized compounds were also determined using ABTS free radical following a reported standard protocol. ABTS (7 mM) and K2S2O8 (2.45 mM) were mixed (in methanol) and put in the dark for 24 h for free radicals’ formation, which was then used as stock solution. The absorbance of 3 mL from the stock ABTS was adjusted to 0.75 at 745 nm, which was considered a control. About 300 μl of each of the serial dilutions (0.1–3.5 μM) of SB1– SB6 and 3 mL of stock ABTS were mixed and incubated for 15 min at 25 °C, and their absorbance was measured at 745 nm. Ascorbic acid was used as a control. The scavenging activity was calculated by Equation (1).

[3] = test system: scopolamine-induced memory impairment in mice; assay: Y-maze spontaneous alternation, scopolamine-induced amnesia; assay type: in vivo, Albino mice; conditions: for effect on spontaneous alternation / short-term memory retention in Y-Maze (significance): 50 and 100 mg/kg b.w, compared with scopolamine-injected group
Description: (§1) Albino mice (20–23 g b. w.) were brought from National Institute of Health, Islamabad, Pakistan, and the mice were retained in animal house at University of Malakand at Department of Pharmacy for acclimation. Normal pellet diet and water were provided to all the animals and were kept for 12 h of light-dark cycle under normal laboratory conditions (temperature in a range of 25 ± 2 °C, humidity of 56–66%). All protocols employed were approved from the Ethical Committee vide notification Pharm/EC-QRE/10–31/25 as per approved “Animal Bye-Laws 2008, Scientific Procedures Issue-I of the Malakand University” and the UK animal scientific procedure act (1986).
After acclimatization, the animals were grouped into different groups consisting of 6 animals each. […] It also can induce amyloid β deposition, oxidative stress, synaptic dysfunction, and learning/memory impairment in experimental animals. Group II received scopolamine along with galantamine as standard. […] The treatment was carried out continuously for 7 days and after treatment schedule, the animals were subjected to behavioural study using Y-maze and NORT.
To assess the short-term memory (amnesic) effect, the exploratory activity of mice were investigated using Y- maze apparatus. At a time, a single mouse was placed at Y-shaped maize and allowed to move freely for 5-min session and alterations were recorded as shown in Fig. 2. The percentage alternations were calculated as per reported protocol and mathematically as given in equation (2).[2] %Alternation=Spontaneousalternation/Totalnumberofarmentries−2×100
Fig. 2 (A). Schematic drawings of the Y-maze and the experimental procedures. The sample trial and test trials were conducted for 5 min at a 30 min interval. (B) The Y-Maze test diagrammatic figure. (a) The mouse was positioned in the middle of the fixed arm and faced the maze's centre during the test. (b) A mouse was considered to have entered an arm when all four of its paws passed the threshold inside the arm and the mouse's snout was pointed in the direction of the end of the arm. (C). Alternations consist of single, uninterrupted entries into each arm of the y-maze. There are three steps involved in each alternation. The steps of alternation are shown in (a) the first entrance into the arm 1; (b) the second entry into the arm 3; and (c) the third entry into the arm 2 [41, 42].

[4] = test system: scopolamine-induced memory impairment in mice; assay: Novel object recognition test (NORT), scopolamine-induced amnesia; assay type: in vivo, Albino mice; conditions: for effect on time spent with the new object N (exploration time) in NOR test: 50 and 100 mg/kg b.w (galantamine: standard), compared with scopolamine group; for effect on discrimination index in NOR test: 50 mg/kg and 100 mg/kg b.w, compared with scopolamine group / galantamine; for effect on latency time to discover familiar object (F) in NOR test: 50 and 100 mg/kg b.w, compared with scopolamine-injected group
Description: as §1
After acclimatization, the animals were grouped into different groups consisting of 6 animals each. […] It also can induce amyloid β deposition, oxidative stress, synaptic dysfunction, and learning/memory impairment in experimental animals. […] The treatment was carried out continuously for 7 days and after treatment schedule, the animals were subjected to behavioural study using Y-maze and NORT.
NORT was used to assess the effect of vanillin derivatives on memory in mice model. The apparatus employed in this test measures 40 cm wide, 40 cm long, and 66 cm tall. NORT entails a two-day habituation period, followed by a two-day training session and finally a testing or experimental period. During habituation, an empty box was used, two identical objects were placed in two corners of the box during training, and one unique object was replaced during testing as shown in Fig. 3. To test long-term memory in mice, a five-day washout period was provided before the NORT. The time spent in each phase was manually documented using a stopwatch.
Fig. 3 Procedures for novel object recognition (NORT). The three phases of the test are shown. In NORT, object identity is changed between training and test; object location is remained unchanged.

[5] = target: T1, acetylcholinesterase (EC 3.1.1.7) (Homo sapiens, UniProt P22303); assay: biochemical; conditions: triplicate (n = 3); 405 nm; read-out: IC50 (μM) AChE
T1 construct: purchased local market (no vendor named)
Description: (§2) To evaluate the therapeutic effectiveness of the compounds as inhibitors of cholinesterases, the reported procedures were followed (Elman's protocol). Enzymes acetylcholinesterase (EC 3.1.1.7) and butyrylcholinesterase (EC 3.1.1.8) were purchased from local market.
The acetylcholinesterase inhibition assay is based on the principle of the hydrolytic breakdown of substrate; acetylthiocholine iodide by acetylcholinesterase enzyme. The AChE acts on acetylthiocholine to thiocholine which then react with DTNB that's leads towards the formations of anion (5-thio-2-nitrobenzoate) a yellow colour product which is then assessed via UV visible spectrophotometer at 405 nm.
The AChE, Ellman's Reagent (DTNB) and acetylthiocholine iodide (ATChI, substrate), and the test compound solutions were made in different concentrations ranges from (0.01–1.0 μM) were incubated per detail given in the Ellman's protocol. […] IC50 of each Schiff bases were calculated using Microsoft Excel 2013 software.

[6] = target: T2, butyrylcholinesterase (EC 3.1.1.8) (Homo sapiens, UniProt P06276); assay: In-vitro BChE inhibitory assay (Ellman's protocol); assay type: biochemical; conditions: triplicate (n = 3); 405 nm
T2 construct: purchased local market (no vendor named)
Description: as §2
The absorbance at 405 nm was measured and the data were analysed in triplicate.

[7] = 50 mg/kg b.w (lower test dose), 7 days, with scopolamine 2 mg/kg i.p., mean ± SEM, n = 6

T1 sequence (P22303 32-614, species assumed): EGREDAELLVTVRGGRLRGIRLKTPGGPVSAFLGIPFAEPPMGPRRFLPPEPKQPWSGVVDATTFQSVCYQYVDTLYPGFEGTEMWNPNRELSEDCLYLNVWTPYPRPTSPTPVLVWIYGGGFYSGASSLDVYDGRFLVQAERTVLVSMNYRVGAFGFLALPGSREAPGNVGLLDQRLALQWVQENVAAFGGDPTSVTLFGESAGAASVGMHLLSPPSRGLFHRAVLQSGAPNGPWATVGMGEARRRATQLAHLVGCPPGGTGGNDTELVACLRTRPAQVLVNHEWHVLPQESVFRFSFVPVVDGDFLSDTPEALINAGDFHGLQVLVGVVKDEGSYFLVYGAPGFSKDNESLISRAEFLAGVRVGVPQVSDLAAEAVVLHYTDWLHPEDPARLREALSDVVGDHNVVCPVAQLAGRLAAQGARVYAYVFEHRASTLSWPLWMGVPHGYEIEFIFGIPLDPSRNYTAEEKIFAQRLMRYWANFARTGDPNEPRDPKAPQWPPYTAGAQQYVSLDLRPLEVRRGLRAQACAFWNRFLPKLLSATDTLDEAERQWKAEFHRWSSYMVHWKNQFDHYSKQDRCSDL
T2 sequence (P06276 29-602): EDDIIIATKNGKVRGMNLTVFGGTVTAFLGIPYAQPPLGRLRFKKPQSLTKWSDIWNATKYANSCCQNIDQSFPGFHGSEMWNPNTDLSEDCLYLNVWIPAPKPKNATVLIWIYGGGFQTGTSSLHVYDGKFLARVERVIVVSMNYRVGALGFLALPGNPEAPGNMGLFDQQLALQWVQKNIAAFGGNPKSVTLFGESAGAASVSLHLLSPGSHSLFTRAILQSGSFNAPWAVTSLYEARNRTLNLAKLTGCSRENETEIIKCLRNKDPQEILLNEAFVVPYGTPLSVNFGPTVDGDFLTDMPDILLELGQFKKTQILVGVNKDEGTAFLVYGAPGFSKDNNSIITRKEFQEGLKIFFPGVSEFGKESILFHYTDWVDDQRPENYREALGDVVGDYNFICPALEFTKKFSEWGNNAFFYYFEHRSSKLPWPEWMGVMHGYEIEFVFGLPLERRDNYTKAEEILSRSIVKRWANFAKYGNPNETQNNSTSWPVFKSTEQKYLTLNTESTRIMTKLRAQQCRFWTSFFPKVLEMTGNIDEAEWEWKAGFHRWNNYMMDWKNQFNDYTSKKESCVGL

Row | Structure (SMILES) | IC50 [1] [µM] | IC50 [2] [µM] | spontaneous alternation rate in Y-Maze ([3]; standard group: galantamine with scopolamine, P < 0.001 vs scopolamine-treated group) | effect on time spent with the new object N (exploration time) in NOR test [4] | IC50 [5] [µM] | IC50 [6] [µM] | spontaneous alternation rate in Y-Maze [3, 7] [%] | effect on spontaneous alternation / short-term memory retention in Y-Maze (significance) [3] | effect on discrimination index in NOR test [4] | effect on latency time to discover familiar object (F) in NOR test [4] | changes in the memory and cognition of mice (NORT) ([4]; mouse, in vivo) | spontaneous alternation rate in Y-Maze ([3]; scopolamine-treated group, 2 mg/kg i.p. alone, n = 6) [%]
1 | O=C1O[C@H]([C@@H](O)CO)C(O)=C1O [Ascorbic acid, reference compound] | 0.074 | 0.073 |  |  |  |  |  |  |  |  |  | 
2 | COc1ccc2c3c1O[C@H]1C[C@@H](O)C=C[C@@]31CCN(C)C2 [Galantamine, reference compound] |  |  | more than 80% | significant increase |  |  |  |  |  |  |  | 
3 | COc1cc(/C=N/c2ccccc2C(F)(F)F)ccc1O [SB-1, (E)-2-methoxy-4-(((2-(trifluoromethyl)phenyl)imino)methyl)phenol] | 0.588 | 0.208 |  | significant increase | 0.078 | 0.265 | 69.44 ± 1 | significantly improved | most prominent activity; also recorded: more pronounced as compared to standard drug | decreased the latency time significantly |  | 
4 | COc1ccc(/C=N/c2ccccc2C(F)(F)F)cc1O [SB-2, (E)-2-methoxy-5-(((2-(trifluoromethyl)phenyl)imino)methyl)phenol] | 0.447 | 0.401 |  | insignificant activity | 0.61 | 0.188 |  | no significant effect | insignificant activity | insignificant | did not cause any changes | 
5 | Oc1ccc(/C=N/c2ccccc2C(F)(F)F)cc1 [SB-3, (E)-4-(((2-(trifluoromethyl)phenyl)imino)methyl)phenol] | 0.305 | 0.118 |  | significant increase | 0.157 | 0.057 | 68.92 ± 1 | significantly improved | most prominent activity | decreased the latency time significantly |  | 
6 | Cc1ccc(/N=C/c2ccc(O)cc2)c(Cl)c1 [SB-4, (E)-4-(((2-chloro-4-methylphenyl)imino)methyl)phenol] | 0.804 | 0.969 |  | significant increase | 0.108 | 0.367 |  |  | most prominent activity | decreased the latency time significantly |  | 
7 | Cc1ccc(/N=C/c2ccccc2Br)c(Cl)c1 [SB-5, (E)-N-(2-bromobenzylidene)-2-chloro-4-methylaniline] | 0.72 | 0.19 |  | insignificant activity | 0.442 | 0.186 |  |  | insignificant activity | significant decrease |  | 
8 | Cc1ccc(/N=C/c2ccc[nH]2)c(Cl)c1 [SB-6, (E)-N-((1H-pyrrol-2-yl)methylene)-2-chloro-4-methylaniline] | 2.8 | 3.3 |  | slight activity |  | 0.117 |  |  |  | decreased the latency time significantly |  | 
9 | CN1[C@@H]2C[C@@H](OC(=O)[C@H](CO)c3ccccc3)C[C@H]1[C@@H]1O[C@@H]12 [Scopolamine] |  |  |  |  |  |  |  |  |  |  |  | 38.16

Source: publication PMC10901097, “Vanillin derivatives as antiamnesic agents in scopolamine-induced memory impairment in mice” (Heliyon, 2024)
